Assay results reported in publication PMC3166964 (Biophysical chemistry, 2011).
pKd: −log10 of the molar value.

Molecular target: T1, caspase-3(D9A,D28A) (Homo sapiens, UniProt P42574, D28A/D9A)
T1 sequence (P42574 1-175 D9A/D28A limits assumed): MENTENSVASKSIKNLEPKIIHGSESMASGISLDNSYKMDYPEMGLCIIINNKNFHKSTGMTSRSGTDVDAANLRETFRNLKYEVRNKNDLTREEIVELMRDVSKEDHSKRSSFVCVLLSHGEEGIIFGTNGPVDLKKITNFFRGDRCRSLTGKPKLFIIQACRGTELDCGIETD
T1 sequence (P42574 176-277 limits assumed): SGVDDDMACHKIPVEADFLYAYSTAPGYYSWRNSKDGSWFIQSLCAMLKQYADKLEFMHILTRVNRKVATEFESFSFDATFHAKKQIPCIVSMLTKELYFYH
Experiment: isothermal titration calorimetry
Type: binding

pKd: ~5.40
SMILES: CCN(CC)S(=O)(=O)c1ccc(-c2ccc(S(=O)(=O)N(CC)CC)s2)s1 [compound 42, N2,N2-diethyl-5-{5-[(diethylamino)sulfonyl]-2-thienyl}thiophene-2-sulfonamide]
